Experimental data taken from patent publication US20040219220A1, “Therapeutic agents” (priority 2001, published 2004).

Legend:
[1] = Extruder barrel temperature profile: ibuprofen content and degradation products after melt extrusion (Example 24); assay type: physicochemical; settings: up to a maximum extruder setting of 140 C
Method: The method set out in Example 1 was used. The extruder screw speed was set to a constant 600 rpm. The powder feed rate was also set to a constant value. to give a constant feed rate of powder into the extruder. The product of each trial was analysed to determine the level of the two major ibuprofen degradation products: 2-(4-isobutyrylphenyl) propionic acid (BTS 47711) and 4-isobutylacetophenone (BTS 40655).

[2] = Extruder temperature/throughput matrix: ibuprofen content and degradation products after melt extrusion (Example 25); assay type: physicochemical; settings: 95 C to 130 C, 102 kg/hour to 216 kg/hour
Method: Further trials using the method of Example 1 but under process conditions as shown in Table 3 were conducted to determine the maximum output from the extruder by varying barrel temperature and powder feed rates, as shown in Table IIA.10.
Once the required extruder barrel temperature had been reached, the extruder was started and allowed to run for 15 minutes in order to equilibrate prior to sample collection.
Samples were collected for analysis to determine the level of degradation products formed.

ibuprofen degradation as a result of the melt extrusion process [1]: no evidence of ibuprofen degradation
degradation of ibuprofen over extruder barrel temperatures and throughputs [2]: no evidence of degradation
SMILES: CC(C)Cc1ccc(C(C)C(=O)O)cc1 (racemic) [ibuprofen]
